Experimental data from PubChem BioAssay AID1195 (EPA DSSTox, 2008).

System: human maximum recommended daily dose, FDA database
Assay: DSSTox (FDAMDD) FDA Maximum (Recommended) Daily Dose Database
Conditions: hits give low values
In short: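 MRDD values come from clinical trials with daily oral dosing, usually for 3–12 months, for the average adult, in mg/day converted to mg/kg-bw/day assuming 60 kg. Antineoplastic mg/m2 doses are divided by 37. Activity score maps log10(1/MRDD mmol) onto 1–100.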

[1] = TherapeuticCategory: antibacterial
[2] = TherapeuticCategory: diagnostic aid
[3] = TherapeuticCategory: antidepressant
[4] = TherapeuticCategory: bronchodilator

## NS(=O)(=O)c1cc2c(cc1Cl)NC(CC1CCCC1)NS2(=O)=O (configuration not stated)
TherapeuticCategory: antihypertensive
  maximum recommended daily dose (mmol/kg-bw/day): 6.58e-05

## NS(=O)(=O)c1cc(Cl)c(Cl)c(S(N)(=O)=O)c1
TherapeuticCategory: carbonic anhydrase inhibitor
  maximum recommended daily dose (mmol/kg-bw/day): 0.0109

## C#CCN1C(=O)CN=C(c2ccccc2)c2cc(Cl)ccc21
TherapeuticCategory: anxiolytic
  maximum recommended daily dose (mmol/kg-bw/day): 0.00108

## N[C@@H](Cc1cc(I)c(Oc2ccc(O)c(I)c2)c(I)c1)C(=O)O
TherapeuticCategory: thyroid hormone
  maximum recommended daily dose (mmol/kg-bw/day): 2.57e-06

## CCN1CCN(C(=O)N[C@@H](C(=O)N[C@@H]2C(=O)N3[C@@H]2SC(C)(C)[C@@H]3C(=O)O)c2ccccc2)C(=O)C1=O
[1]
  maximum recommended daily dose (mmol/kg-bw/day): 0.773

## C[n+]1ccccc1/C=N/O
TherapeuticCategory: cholinesterase inhibitor
  maximum recommended daily dose (mmol/kg-bw/day): 0.193

## NS(=O)(=O)c1cc2c(cc1Cl)NC(CSCc1ccccc1)=NS2(=O)=O
TherapeuticCategory: diuretic, antihypertensive
  maximum recommended daily dose (mmol/kg-bw/day): 0.00771

## C[N+]1([O-])[C@@H]2CC[C@H]1CC(OC(=O)C(CO)c1ccccc1)C2 (some centres not stated)
TherapeuticCategory: anticholinergic
  maximum recommended daily dose (mmol/kg-bw/day): 0.000164

## COc1cc(C(=O)NC2CCCNC2)cc(OC)c1OC (configuration not stated)
TherapeuticCategory: antiulcerative
  maximum recommended daily dose (mmol/kg-bw/day): 0.017

## CCC(=O)O[C@@H]1CC(=O)O[C@H](C)C/C=C/C=C/[C@H](O[C@@H]2CC[C@H](N(C)C)[C@@H](C)O2)[C@H](C)C[C@H](CC=O)[C@H](O[C@@H]2O[C@H](C)[C@@H](O[C@H]3C[C@@](C)(O)[C@@H](O)[C@H](C)O3)[C@H](N(C)C)[C@H]2O)[C@H]1OC
[1]
  maximum recommended daily dose (mmol/kg-bw/day): 0.0742

## COC(=O)C1=C(C)NC(C)=C(C(=O)OCCN(C)Cc2ccccc2)C1c1cccc([N+](=O)[O-])c1 (configuration not stated)
TherapeuticCategory: antianginal, antihypertensive
  maximum recommended daily dose (mmol/kg-bw/day): 0.00417

## C1CNCCN1
TherapeuticCategory: anthelmintic
  maximum recommended daily dose (mmol/kg-bw/day): 0.774

## CC(=O)N(CC(O)CO)c1c(I)c(C(=O)NCC(O)CO)c(I)c(C(=O)NCC(O)CO)c1I (configuration not stated)
[2]
  maximum recommended daily dose (mmol/kg-bw/day): 0.134

## OC1(c2ccc(Cl)cc2)c2ccccc2C2=NCCN21 (configuration not stated)
TherapeuticCategory: anorexic
  maximum recommended daily dose (mmol/kg-bw/day): 0.000117

## CCCCC[C@](C)(O)/C=C/[C@@H]1[C@@H](C/C=C\CCCC(=O)O)[C@@H](O)C[C@H]1O
TherapeuticCategory: oxytocic
  maximum recommended daily dose (mmol/kg-bw/day): 0.000543

## C[C@@H]1CN(c2c(F)c(N)c3c(=O)c(C(=O)O)cn(C4CC4)c3c2F)C[C@H](C)N1
[1]
  maximum recommended daily dose (mmol/kg-bw/day): 0.017

## CC(C)(Oc1ccc(Cl)cc1)C(=O)NC(=O)NCN1CCOCC1
TherapeuticCategory: antithrombotic
  maximum recommended daily dose (mmol/kg-bw/day): 0.112

## O=P(O)(O)OCC(Cl)(Cl)Cl
TherapeuticCategory: sedative, hypnotic
  maximum recommended daily dose (mmol/kg-bw/day): 0.145

## CN(C)CCCN1c2ccccc2C(C)(C)c2ccccc21
[3]
  maximum recommended daily dose (mmol/kg-bw/day): 0.034

## Cn1c(=O)c2c(ncn2CC2OCCO2)n(C)c1=O
[4]
  maximum recommended daily dose (mmol/kg-bw/day): 0.05

## CCN(CC)CCOCCOC(=O)C1(c2ccccc2)CCCC1
TherapeuticCategory: antitussive
  maximum recommended daily dose (mmol/kg-bw/day): 0.006

## N[C@@H](CC(=O)O)C(=O)O
TherapeuticCategory: roborant
  maximum recommended daily dose (mmol/kg-bw/day): 0.751

## CC[N+](C)(C)Cc1ccccc1Br
TherapeuticCategory: antiadrenergic, cardiac depressant
  maximum recommended daily dose (mmol/kg-bw/day): 0.0121

## CN(C)c1ccc2nc3ccc(=[N+](C)C)cc-3sc2c1
TherapeuticCategory: antimethemoglobinemic
  maximum recommended daily dose (mmol/kg-bw/day): 0.0203

## CN(C)CCC=C1c2ccccc2CCc2ccccc21
[3]
  maximum recommended daily dose (mmol/kg-bw/day): 0.018

## CNC(C)CC1CCCCC1 (configuration not stated)
TherapeuticCategory: andrenergic, nasal decongestant
  maximum recommended daily dose (mmol/kg-bw/day): 0.0161

## Nc1c(N=Nc2ccc(-c3ccc(N=Nc4cc(S(=O)(=O)O)c5ccccc5c4N)cc3)cc2)cc(S(=O)(=O)O)c2ccccc12
[2]
  maximum recommended daily dose (mmol/kg-bw/day): 0.00538

## CN(C)CCCN1c2ccccc2Sc2ccc(Cl)cc21
TherapeuticCategory: antiemetic, antipsychotic
  maximum recommended daily dose (mmol/kg-bw/day): 0.0524

## O=C1NC(=O)C(c2ccccc2)(c2ccccc2)N1
TherapeuticCategory: anticonvulsant, antiepileptic
  maximum recommended daily dose (mmol/kg-bw/day): 0.0198

## CCC1NC(=O)c2cc(S(N)(=O)=O)c(Cl)cc2N1 (configuration not stated)
TherapeuticCategory: diuretic
  maximum recommended daily dose (mmol/kg-bw/day): 0.0115

## C#CCN(C)[C@H](C)Cc1ccccc1
TherapeuticCategory: antiparkinsonian
  maximum recommended daily dose (mmol/kg-bw/day): 0.000892

## CNC(C)Cc1ccccc1OC (configuration not stated)
[4]
  maximum recommended daily dose (mmol/kg-bw/day): 0.0558

## CC1(C)S[C@@H]2[C@H](NC(=O)COc3ccccc3)C(=O)N2[C@H]1C(=O)O
[1]
  maximum recommended daily dose (mmol/kg-bw/day): 0.0713

## O=C(OCCN1CCCCC1)C(O)(c1ccccc1)c1ccccc1
TherapeuticCategory: anticholinergic, antispasmodic
  maximum recommended daily dose (mmol/kg-bw/day): 0.00392

## CCC(=O)O[C@H]1CC[C@H]2[C@@H]3CC[C@H]4CC(=O)[C@H](C)C[C@]4(C)[C@H]3CC[C@]12C
TherapeuticCategory: antineoplastic
  maximum recommended daily dose (mmol/kg-bw/day): 0.00463

## CC(=O)OCC(=O)[C@@]1(O)CC[C@H]2[C@@H]3CCC4=CC(=O)CC[C@]4(C)[C@@]3(F)[C@@H](O)C[C@@]21C
TherapeuticCategory: mineralcorticoid
  maximum recommended daily dose (mmol/kg-bw/day): 3.95e-06

## CC[N+]1(C)[C@@H]2CC(OC(=O)[C@H](CO)c3ccccc3)C[C@H]1[C@@H]1O[C@@H]12 (some centres not stated)
[4]
  maximum recommended daily dose (mmol/kg-bw/day): 2.43e-05
